From patent US20260234128A1, “CRYSTALLINE FORMS OF 2-(4-(4-(AMINOMETHYL)-1-OXO-1,2- DIHYDROPHTHALAZIN-6-YL)-1-METHYL-1H- PYRAZOL-5-YL)-4-CHLORO-6-CYCLOPROPOXY-3-FLUOROBENZONITRILE” (MIRATI THERAPEUTICS, INC., priority 2023, published 2026)
Counter-ions that a name gives are not always drawn.

Assays:
[1] = Competitive slurry experiments (relative stability of crystal forms); assay type: physicochemical
Text: Pattern A was observed under certain conditions during competitive slurry experiments. Pattern A was confirmed to be racemate by chiral HPLC analysis.

[2] = Dynamic vapor sorption (DVS) hygroscopicity; assay type: physicochemical; settings: for form change after DVS evaluation: sample after DVS
Procedure: The hygroscopicity of HCl Form A was also evaluated by conducting dynamic vapor sorption experiments.
The hygroscopicity of HCl Form B was also evaluated by conducting dynamic vapor sorption experiments.
The hygroscopicity of HCl Form E was also evaluated by conducting dynamic vapor sorption experiments.

[3] = Pharmacokinetics after oral capsule administration in male beagle dogs pre-treated with pentagastrin or famotidine; assay type: in vivo
Procedure: The substances were filled into Empty HPMC Capsules after correcting for potency and administered to dogs pre-treated with either pentagastrin or famotidine along with 40 mL of water. Pentagastrin enhances gastric secretions whereas famotidine neutralizes gastric sections. Therefore, pentagastrin and famotidine pre-treatments were used to simulate the impact of gastric pH on bioavailability and reduce the variability in gastric pH between dogs.
Plasma samples were collected at pre-defined intervals and analyzed for the concentration of Compound 1. The plasma concentration versus time data was analyzed by non-compartmental approaches using Win Nonlin software program to estimate PK parameters such as Cmax, Tmax, AUC0-t and AUC0-inf.

[4] = Intrinsic dissolution rate and drug in capsule dissolution in FaSSGF and FaSSIF; assay type: physicochemical
Procedure: The IDR rate was calculated using the slope of the linear curve divided by the surface area of tablet (0.5 cm^2). […] 0.6 mL liquid was removed with a syringe at each time point and filtered. The concentration of filtrates was analyzed by HPLC.

[5] = Manufacturability and physical stability (compressibility, tabletability, compatibility, XRD after compaction); assay type: physicochemical
Procedure: The XRD patterns were compared with the uncompressed compound. X-ray powder diffractograms were obtained on a wide-angle X-ray diffraction instrument (X'Pert Pro; PANalytical Inc., West Borough, MA) using Cu Ká radiation. The voltage and current applied were 45 kV and 40 mA, respectively. Each measurement was performed with a step size of 0.0167° in the 2-theta range of 5-35° and a dwell time of 0.4 s.

[6] = Excipient compatibility (binary mixtures, total impurity by HPLC); assay type: physicochemical
Text: Binary mixtures of samples were created by mixing the substance and the excipients (1:10 Compound to Excipients for fillers and 1:1 for all other excipients) using a mortar and pestle and the resultant mixture was accurately weighed and transferred into sample vials. The excipients used were as follows: colloidal silicon dioxide 200, croscarmellose sodium, crospovidone XL-10, dibasic calcium phosphate (an), hydroxypropyl cellulose, lactose monohydrate, magnesium stearate, mannitol 100SD, MCC PH102, Opadry™ II, povidone K-30, pregelatinized starch 1500, sodium starch glycolate, and sodium stearyl fumarate. The sample vials were set down at 40° C./75% RH condition for 8 weeks in open condition before analyzing their impurity levels using HPLC.

[7] = 25° C. between 10% relative humidity and 90% relative humidity, hydrochloride salt

Cn1ncc(-c2ccc3c(=O)[nH]nc(CN)c3c2)c1-c1c(F)c(Cl)cc(OC2CC2)c1C#N [HCl Form E, 2-(4-(4-(aminomethyl)-1-oxo-1,2-dihydrophthalazin-6-yl)-1-methyl-1H-pyrazol-5-yl)-4-chloro-6-cyclopropoxy-3-fluorobenzonitrile hydrochloride salt]
Crystal Form ([1]; H2O (starting with Type E only) at 25° C., 4 d): Form B | Crystal Form ([1]; H2O (starting with Type E only) at 25° C., 8 d): Form B | water uptake (DVS isotherm) ([2]; 25° C. between 0% relative humidity and 80% relative humidity): approximately 2.56% | Hygroscopicity (25° C./80% RH), class in words [2]: slightly | Hygroscopicity (25° C./80% RH) ([2]; hydrochloride salt): 2.56% | form change after DVS evaluation [2]: No form change was observed

Cn1ncc(-c2ccc3c(=O)[nH]nc(CN)c3c2)c1-c1c(F)c(Cl)cc(OC2CC2)c1C#N [amorphous HCl salt, 2-(4-(4-(aminomethyl)-1-oxo-1,2-dihydrophthalazin-6-yl)-1-methyl-1H-pyrazol-5-yl)-4-chloro-6-cyclopropoxy-3-fluorobenzonitrile]
Crystal Form ([1]; EtOH/H2O (40:60 v/v) at 25° C., 1d (a clear solution was obtained before precipitation)): Pattern A

Cn1ncc(-c2ccc3c(=O)[nH]nc(CN)c3c2)c1-c1c(F)c(Cl)cc(OC2CC2)c1C#N [HCl salt, 2-(4-(4-(aminomethyl)-1-oxo-1,2-dihydrophthalazin-6-yl)-1-methyl-1H-pyrazol-5-yl)-4-chloro-6-cyclopropoxy-3-fluorobenzonitrile hydrochloride salt]
variability of plasma exposure ([3]; pentagastrin-treated dogs, oral 100 mg/dog, ascribed to common ion effect in the gastric media): high variability

Cn1ncc(-c2ccc3c(=O)[nH]nc(CN)c3c2)c1-c1c(F)c(Cl)cc(OC2CC2)c1C#N [HCl Form B, 2-(4-(4-(aminomethyl)-1-oxo-1,2-dihydrophthalazin-6-yl)-1-methyl-1H-pyrazol-5-yl)-4-chloro-6-cyclopropoxy-3-fluorobenzonitrile hydrochloride salt]
dissolution rate in intestinal media ([4]; 37° C., 50 rpm, USP Type II): slightly faster dissolution rate than Free Base Form A | dissolution in gastric media ([4]; 37° C., 50 rpm, USP Type II, hydrochloride salt): common ion effect slowing dissolution | compatibility (tensile strength vs porosity) ([5]; at high pressures): good | compressibility (porosity vs compaction pressure) ([5]; at high pressures): good | tabletability (tensile strength vs compaction pressure) ([5]; at high pressures): good | phase stability by XRD after compression ([5]; high compaction pressure (300 MPa)): loss of crystallinity was observed | water uptake (DVS isotherm) [2, 7]: approximately 1.3% | Hygroscopicity (25° C./80% RH), class in words [2]: slightly | Hygroscopicity (25° C./80% RH) ([2]; hydrochloride salt): 1.3% | form change after DVS evaluation [2]: No form change was observed

Cn1ncc(-c2ccc3c(=O)[nH]nc(CN)c3c2)c1-c1c(F)c(Cl)cc(OC2CC2)c1C#N [Free Base Form A, 2-(4-(4-(aminomethyl)-1-oxo-1,2-dihydrophthalazin-6-yl)-1-methyl-1H-pyrazol-5-yl)-4-chloro-6-cyclopropoxy-3-fluorobenzonitrile]
dissolution in gastric media ([4]; 37° C., 50 rpm, USP Type II): faster dissolution in gastric media | super saturation in intestinal fluid ([4]; pH shifted from gastric to intestinal after 30 minutes): able to maintain super saturation in intestinal fluid | compatibility with excipients (total impurity content) ([6]; binary mixtures, 40° C./75% RH, 8 weeks, open condition, HPLC): good compatibility with excipients | sensitivity to individual excipients ([6]; colloidal silicon dioxide and lactose monohydrate, 40° C./75% RH, 8 weeks, open): more sensitive to colloidal silicon dioxide and lactose monohydrate than HCl Form B | risk of chemical stability ([6]; with excipients, manageable by choice of excipients): slightly higher | exposure ([3]; oral 100 mg/dog, when the particle size was normalized): equivalent exposure to HCl salt

Cn1ncc(-c2ccc3c(=O)[nH]nc(CN)c3c2)c1-c1c(F)c(Cl)cc(OC2CC2)c1C#N [HCl Form A, 2-(4-(4-(aminomethyl)-1-oxo-1,2-dihydrophthalazin-6-yl)-1-methyl-1H-pyrazol-5-yl)-4-chloro-6-cyclopropoxy-3-fluorobenzonitrile hydrochloride salt]
stability relative to the other HCl form ([3]; conclusion drawn from the dog study results): less stable than HCl Form B | water uptake (DVS isotherm) [2, 7]: approximately 1.43% | Hygroscopicity (25° C./80% RH), class in words [2]: slightly | Hygroscopicity (25° C./80% RH) ([2]; hydrochloride salt): 1.43% | form change after DVS evaluation [2]: No form change was observed
